From patent US20250115582A1, “MOLECULAR GLUE DEGRADERS AND METHODS OF USING THE SAME” (Monte Rosa Therapeutics, Inc., priority 2022, published 2025) come the findings set out here.

For one experiment, the system named is SKCO1. As to the kind of experiment: GI50 growth inhibition, CyQUANT, SKCO1. It is filed as cell-based. To be noted: Homo sapiens, SK-CO-1, SKCO1 cells, 120 to 168 hours. On the procedure:
(§1) SKCO1, LS180, and LS174T cell lines were purchased from ATCC. CW2 cell line was purchased from Riken. GP2D cell line was purchased from Sigma/ECACC. All cell lines were cultured in manufacturer's recommended media at 37° C., 5% CO2. Briefly, cells were suspended in 200 μL of media and seeded at 300 to 1,800 cells per well in tissue culture treated 96-well plates with black walls and clear bottom. Plates were incubated overnight and initial (T0) read was performed the following day using CyQUANT Direct Cell Proliferation Assay Kit (Thermo Fisher Scientific) according to manufacturer's protocol. All compounds were solubilized in DMSO and prepared at 3-fold serial dilution, using 9 points starting at 30 μM as highest concentration, administered to cells and incubated for 120 to 168 hours, at which point CyQUANT assay measurement was performed using Acumen Cellista instrument (Ex/Em 480/520 nm). Media-only wells were used as blank, and 0.3% DMSO was used as DMSO-treated cell control. Growth inhibition (percent response) was calculated using the following formula in Excel: “=if ([Compound treated Day N]>[Untreated Day 0, AVG], ([Compound treated Day N]−[Untreated Day 0, AVG])/([Untreated Day N]−[Untreated Day 0, AVG])*100, ([Compound Treated Day N]−[Untreated Day 0, AVG])/([Untreated Day 0, AVG])*100)”. GI50 is the response corresponding to the 50% of untreated control.
(§2) GI50 data are reported in Tables 4a, 4b, 4c, 4d, and 4e for compounds in Table 1. In Tables 4a, 4b, 4c, 4d, and 4e below, According to the code, A represents a GI50 value of ≤0.1 μM, B represents a GI50 value>0.1 μM and ≤1 μM, C represents an GI50 value>1 μM.

A further experiment has as its system LS180. The experiment in a line: GI50 growth inhibition, CyQUANT, LS180. It counts as cell-based. To be noted: Homo sapiens, LS180 cells, 120 to 168 hours. On the procedure: as §1, §2
The test system of a further experiment is GP2D. The experiment in a line: GI50 growth inhibition, CyQUANT, GP2D. It counts as cell-based. To be noted: GP2D cells, 120 to 168 hours. On the procedure: as §1, §2
The next experiment has as its target CRBN/DDB1 (Homo sapiens, UniProt Q96SW2). The experiment in a line: HTRF binding assay (thalidomide probe displacement from CRBN/DDB1). Conditions: CRBN/DDB1 2.5 nM, Cy5-Thalidomide 100 nM, 30 min; geometric mean; read-out: HTRF_Thali_Disp_DR—geo_IC50. From the text:
Binding of test compounds to CRBN/DDB1 was monitored in an HTRF assay using 1-[5-({2-[2-(2-{[2-(2,6-dioxopiperidin-3-yl)-1,3-dioxo-2,3-dihydro-1H-isoindol-4-yl]oxy}acetamido)ethoxy]ethyl}carbamoyl)pentyl]-3,3-dimethyl-2-[(1E,3E)-5-[(2E)-1,3,3-trimethyl-5-sulfo-2,3-dihydro-1H-indol-2-ylidene]penta-1,3-dien-1-yl]-3H-indol-1-ium-5-sulfonate as a fluorescent probe. In this assay, compounds displace the fluorescently labeled thalidomide-based probe bound to CRBN and fluorescence is monitored with increasing compound concentration. Assays were conducted in Greiner white 384 well HiBase plates (Cat. No 784075-25) in 10 μL total volume. A one pot detection solution of CRBN/DDB1 (2.5 nM), anti-His Terbium Cryptate Gold (1×, PerkinElmer Cat. #: 61HI2TLB), and Cy5-Thalidomide (100 nM, Tenova Cat.: T52461) was prepared in 20 mM HEPES, 20 mM NaCl, 0.2 mM TCEP, 0.2 mM EDTA, and 0.005% Tween20 was dispensed to each assay plate. Test compounds were stored in dry, ambient temperatures at 10 mM. A 10-point, 1:3 dilution series was prepared from 10 mM stock concentrations in Echo-compatible LDV plates. 10 nL of each compound dilution series was dispensed into assays wells using an Echo 650 (Labcyte inc. USA). 10 nL of 10 mM lenalidomide (Selleckchem Cat no. S1029) was transferred into the active-control wells for the assay and 10 nL of DMSO was transferred into the negative control wells. The assay was then allowed to incubate for 30 min at ambient temperature after transferring the test compounds. Plate measurements were taken on a Pherastar FSX (BMG Labtech, Germany) using the HTRF Red filter (Ex. 337 nm, eml: 620 nm, em2: 665 nm) (Flashes: 50, Integration time: 60-400 μs, Z-height: 10 mm, Ratio-multiplier: 10,000). Analysis, HTRF ratio and IC50 values were derived using KNIME analytics (KNIME Zurich) transformation and fitting within Collaborative Drug Discovery (Collaborative Drug Discovery USA) using a 4-parameter logistic fit. HTRF ratio calculation was performed using the following formula: […]
where em665nm represents the measured emission at 665 nm upon excitation at 337 nm and em620nm the measured emission at 620 nm upon excitation at 337 nm. The 4 parameter logistic fitting model was performed using the following formula: […]
where Y represents the HTRF ratio response (as defined previously), X the compound concentration in μM, Ymin the minimum response plateau, Ymax the maximum response plateau, IC50 the concentration of agonist that gives a response half way between Ymin and Ymax and HillSlope the steepness of the family of curves. No fitting model constraints was applied on Ymin, or Ymax whilst IC50>0 and −0.5>HillSlope>−3
Ki values were derived from the geometric mean of the IC50 values using the Cheng-Prusoff transformation:
where [L] represents the concentration of fluorescent probe in μM, Kd the affinity (binding constant) of the fluorescent probe in units of μM and IC50 the concentration of agonist that gives a response halfway between Ymin and Ymax (as described in 1.2.1)
Analysis and IC50 values were derived using KNIME analytics (KNIME, Zurich) transformation and fitting within Collaborative Drug Discovery (Collaborative Drug Discovery, USA) as described in 1.2.1. Ki values were derived from the geometric mean of the IC50 values using the Cheng-Prusoff transformation as described in 2.2.2. Data was visualized in GraphPad Prism 8.1.2 (GraphPad, USA) and reported as mean and standard deviation. Microsoft Office Excel 2012 (Redmond, WA) was used for calculation of mean and standard deviation.
IC50 data are reported in Table 3 for compounds in Table 1. In Table 3 below, According to the code, A represents a IC50 value of ≤0.1 μM, B represents a IC50 value≥0.1 μM and ≤1 μM, C represents an IC50 value>1 μM.

The next experiment concerns CW2. As to the kind of experiment: GI50 growth inhibition, CyQUANT, CW2. It counts as cell-based. To be noted: Homo sapiens, CW-2, CW2 cells, 120 to 168 hours. The method, then: as §1, §2
The next experiment addresses T1, CK1α (Homo sapiens, UniProt P48729+Q96SW2).
T1 construct: HEK293 clonal line with CRISPR KI HiBiT tag on CSNK1A1; host or cells: HEK293 clonal line, CRISPR HiBiT knock-in at CSNK1A1, stably expressing LgBiT
The experiment in a line: CK1α NanoBiT assay (HiBiT-tagged CSNK1A1 in HEK293 clonal line). It is filed as cell-based. Conditions: HEK293 HiBiT-CSNK1A1/LgBiT cells, 24 h incubation, luminescence. On the procedure:
HEK293 clonal line with CRISPR KI HiBiT tag on CSNK1A1 and stably expressing LgBiT protein was obtained from Promega (Madison, WI). Cells were plated at 5000 cells per well using Multiflo (BioTek) in 384-well white solid bottom plates (Corning, 3570BC) in […] volume in DMEM media (DMEM, high glucose, HEPES, no phenol red (ThermoFisher Scientific, 21063029)) containing 10% FBS (Corning, 35-075-CV), 1% Penicillin/Streptomycin ((ThermoFisher Scientific, 15140-122), and 0.2% Endurazine (Nano-Glo Endurazine Live Cell Substrate (Promega, N2571)). Cells were incubated for 16 hours at 37C, 5% CO2. Depending on experiment 25 or 75 nL of a compound at 10 mM were added into the plate using an Echo®650 liquid handler (Labcyte) to achieve final concentration of […] in wells. Cells were incubated at 37° C., 5% CO2 for 24 hours followed by signal was read on Pherastar FSX using “LUM plus” optic module.
Data analysis was performed using Scinamic (Scinamic, Cambridge, MA).
Luminescence response (R) was calculated by the formula: response=100*(S−N)/(P−N), where S is the signal of the well, N and P the mean negative and positive control values, respectively, of the same plate. The luminescence response was then fitted in Scinamic using a 3-parameter agonist logistic fit (hillslope=1, EC50>0, top/bottom unconstrained).
DC50 data are reported in Table 2 for compounds in Table 1. In Table 2 below, According to the code, A represents a DC50 value of ≤0.1 μM, B represents a DC50 value>0.1 μM and ≤1 μM, C represents an DC50 value>1 μM.

The next experiment relates to LS174T. As to the kind of experiment: GI50 growth inhibition, CyQUANT, LS174T. It is filed as cell-based. Conditions: Homo sapiens, LS174T cells, 120 to 168 hours. The method, then:
as §1, §2

Chain of CRBN/DDB1 (Q96SW2 whole entry): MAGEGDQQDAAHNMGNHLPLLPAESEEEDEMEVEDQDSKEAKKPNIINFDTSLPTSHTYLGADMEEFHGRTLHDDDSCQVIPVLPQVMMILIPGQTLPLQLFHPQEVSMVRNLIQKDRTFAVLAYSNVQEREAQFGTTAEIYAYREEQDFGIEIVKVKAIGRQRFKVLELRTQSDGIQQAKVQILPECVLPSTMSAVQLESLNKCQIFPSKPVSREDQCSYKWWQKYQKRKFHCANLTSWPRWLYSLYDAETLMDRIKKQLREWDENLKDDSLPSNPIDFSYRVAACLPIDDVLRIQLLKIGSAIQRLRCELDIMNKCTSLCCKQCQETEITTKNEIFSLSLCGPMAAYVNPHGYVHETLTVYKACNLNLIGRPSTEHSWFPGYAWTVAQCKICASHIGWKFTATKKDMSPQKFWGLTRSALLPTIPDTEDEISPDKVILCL
Chain of CRBN/DDB1 (Q16531 whole entry partner): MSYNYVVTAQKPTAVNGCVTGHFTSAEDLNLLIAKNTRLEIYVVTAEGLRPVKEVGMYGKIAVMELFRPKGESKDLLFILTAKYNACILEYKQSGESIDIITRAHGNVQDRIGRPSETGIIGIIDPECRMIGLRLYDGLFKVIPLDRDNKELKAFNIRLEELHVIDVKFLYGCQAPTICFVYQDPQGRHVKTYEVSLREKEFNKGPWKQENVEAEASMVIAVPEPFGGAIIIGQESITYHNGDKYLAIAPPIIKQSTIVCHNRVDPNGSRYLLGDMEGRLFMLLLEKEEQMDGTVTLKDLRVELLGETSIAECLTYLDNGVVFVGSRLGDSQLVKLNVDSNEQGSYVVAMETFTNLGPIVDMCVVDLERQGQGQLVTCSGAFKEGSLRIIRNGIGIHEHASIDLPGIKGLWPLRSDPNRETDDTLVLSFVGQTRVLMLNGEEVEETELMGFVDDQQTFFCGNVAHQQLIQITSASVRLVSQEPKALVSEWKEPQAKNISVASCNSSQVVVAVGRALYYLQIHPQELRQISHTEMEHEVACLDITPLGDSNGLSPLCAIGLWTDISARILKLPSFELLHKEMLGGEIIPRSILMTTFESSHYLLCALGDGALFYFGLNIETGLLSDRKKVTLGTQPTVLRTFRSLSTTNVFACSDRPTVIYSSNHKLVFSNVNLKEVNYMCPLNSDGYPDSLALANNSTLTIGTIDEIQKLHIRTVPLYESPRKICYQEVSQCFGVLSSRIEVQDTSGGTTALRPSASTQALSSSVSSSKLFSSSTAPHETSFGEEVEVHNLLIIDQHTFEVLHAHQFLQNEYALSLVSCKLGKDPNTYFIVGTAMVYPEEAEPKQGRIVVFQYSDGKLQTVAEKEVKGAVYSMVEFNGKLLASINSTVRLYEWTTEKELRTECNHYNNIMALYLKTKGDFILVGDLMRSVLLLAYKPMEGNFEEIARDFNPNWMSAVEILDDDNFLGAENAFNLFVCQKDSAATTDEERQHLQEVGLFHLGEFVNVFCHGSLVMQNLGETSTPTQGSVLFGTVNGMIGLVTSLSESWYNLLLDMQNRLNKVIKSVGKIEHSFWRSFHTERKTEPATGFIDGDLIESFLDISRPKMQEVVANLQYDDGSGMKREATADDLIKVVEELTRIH
T1 sequence (P48729 whole entry): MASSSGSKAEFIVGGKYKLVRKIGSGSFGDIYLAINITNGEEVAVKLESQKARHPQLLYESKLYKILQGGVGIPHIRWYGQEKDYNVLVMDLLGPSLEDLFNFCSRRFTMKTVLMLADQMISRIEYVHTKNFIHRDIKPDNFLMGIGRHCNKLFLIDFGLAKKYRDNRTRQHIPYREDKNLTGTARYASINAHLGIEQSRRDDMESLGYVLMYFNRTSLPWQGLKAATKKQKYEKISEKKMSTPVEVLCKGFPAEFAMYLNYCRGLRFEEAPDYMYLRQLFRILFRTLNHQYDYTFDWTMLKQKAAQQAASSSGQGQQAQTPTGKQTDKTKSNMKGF
T1 sequence (Q96SW2 whole entry): as the sequence (Q96SW2 whole entry) above
T1 sequence (Q16531 2-1140 partner limits assumed): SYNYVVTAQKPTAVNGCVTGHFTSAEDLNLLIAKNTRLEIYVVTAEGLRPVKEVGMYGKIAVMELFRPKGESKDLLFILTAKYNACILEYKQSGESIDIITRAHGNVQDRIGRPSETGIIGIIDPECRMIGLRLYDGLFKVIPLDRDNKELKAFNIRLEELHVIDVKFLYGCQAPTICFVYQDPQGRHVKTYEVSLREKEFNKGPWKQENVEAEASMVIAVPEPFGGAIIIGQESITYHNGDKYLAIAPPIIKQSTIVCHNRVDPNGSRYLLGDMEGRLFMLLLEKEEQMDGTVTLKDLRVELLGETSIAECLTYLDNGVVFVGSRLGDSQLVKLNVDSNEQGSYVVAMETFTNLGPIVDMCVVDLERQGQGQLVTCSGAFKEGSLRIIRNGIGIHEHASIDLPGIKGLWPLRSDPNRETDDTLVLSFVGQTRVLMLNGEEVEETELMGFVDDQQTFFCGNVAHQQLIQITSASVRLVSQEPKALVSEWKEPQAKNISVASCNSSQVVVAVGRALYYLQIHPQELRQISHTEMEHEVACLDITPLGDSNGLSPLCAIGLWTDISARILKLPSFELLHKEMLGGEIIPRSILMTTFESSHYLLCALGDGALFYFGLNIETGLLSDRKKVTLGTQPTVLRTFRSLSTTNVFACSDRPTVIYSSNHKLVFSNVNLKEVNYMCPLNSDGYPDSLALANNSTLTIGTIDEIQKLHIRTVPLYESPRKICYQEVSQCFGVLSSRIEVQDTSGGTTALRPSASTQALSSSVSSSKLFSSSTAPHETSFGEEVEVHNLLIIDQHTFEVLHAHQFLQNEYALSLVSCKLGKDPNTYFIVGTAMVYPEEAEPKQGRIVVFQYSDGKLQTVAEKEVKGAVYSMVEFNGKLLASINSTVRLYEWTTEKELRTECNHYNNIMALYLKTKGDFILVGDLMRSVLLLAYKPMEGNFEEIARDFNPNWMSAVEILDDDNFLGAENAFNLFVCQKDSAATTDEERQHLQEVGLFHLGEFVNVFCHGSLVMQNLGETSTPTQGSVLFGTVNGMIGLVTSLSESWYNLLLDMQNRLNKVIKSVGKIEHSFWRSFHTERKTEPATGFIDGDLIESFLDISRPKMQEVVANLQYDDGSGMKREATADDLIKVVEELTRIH

As for `O=C1CCC(N2Cc3cc(NC(=O)c4cn(-c5ccccc5)cn4)ccc3C2=O)C(=O)N1` (stereo not shown) [Compound 109, N-(2-(2,6-dioxopiperidin-3-yl)-1-oxoisoindolin-5-yl)-1-phenyl-1H-imidazole-4-carboxamide], the GI50 is less than 100 nM with SKCO1; 100 to 1000 nM with LS180; less than 100 nM in the experiment on GP2D; less than 100 nM in the experiment on CW2; less than 100 nM in the experiment on LS174T. For the same compound, at CRBN/DDB1, the IC50 is 100 to 1000 nM. Moreover, the DC50 on CK1α is less than 0.1 µM.
For `Cc1cccc(C(=O)Nc2ccc3c(c2)CN(C2CCC(=O)NC2=O)C3=O)c1` (stereo not shown) [Compound 139, N-(2-(2,6-dioxopiperidin-3-yl)-1-oxoisoindolin-5-yl)-3-methylbenzamide], at CRBN/DDB1, the IC50 was in the range of 100 to 1000 nM. In addition, the DC50 at CK1α was less than 0.1 µM.
On to `CC(C)c1ccccc1C(=O)Nc1ccc2c(c1)CN(C1CCC(=O)NC1=O)C2=O` (stereo not shown) [Compound 140, N-(2-(2,6-dioxopiperidin-3-yl)-1-oxoisoindolin-5-yl)-2-isopropylbenzamide], for which, on CRBN/DDB1, the IC50 was 100 to 1000 nM. Also, at CK1α, the DC50 was in the range of 0.1 to 1 µM.
For `CCc1ccccc1C(=O)Nc1ccc2c(c1)CN(C1CCC(=O)NC1=O)C2=O` (stereo not shown) [Compound 141, N-(2-(2,6-dioxopiperidin-3-yl)-1-oxoisoindolin-5-yl)-2-ethylbenzamide], in that order: 100 to 1000 nM and 0.1 to 1 µM.
For `O=C1CCC(N2Cc3cc(NC(=O)c4cccc(F)c4)ccc3C2=O)C(=O)N1` (stereo not shown) [Compound 142, N-(2-(2,6-dioxopiperidin-3-yl)-1-oxoisoindolin-5-yl)-3-fluorobenzamide], in that order: 100 to 1000 nM and less than 0.1 µM.
Consider `O=C1CCC(N2Cc3cc(NC(=O)c4ccccc4F)ccc3C2=O)C(=O)N1` (stereo not shown) [Compound 143, N-(2-(2,6-dioxopiperidin-3-yl)-1-oxoisoindolin-5-yl)-2-fluorobenzamide], for which the IC50 on CRBN/DDB1 lay in the range of 100 to 1000 nM. Also, the DC50 on CK1α lay within 0.1 to 1 µM.
The like results for `Cc1cc(CC(=O)Nc2ccc3c(c2)CN(C2CCC(=O)NC2=O)C3=O)ccc1Cl` (stereo not shown) [Compound 144, 2-(4-chloro-3-methylphenyl)-N-(2-(2,6-dioxopiperidin-3-yl)-1-oxoisoindolin-5-yl)acetamide] were, in that order, 100 to 1000 nM and 0.1 to 1 µM.
Turning to `O=C1CCC(N2Cc3cc(NC(=O)c4ccccc4Cl)ccc3C2=O)C(=O)N1` (stereo not shown) [Compound 148], at CRBN/DDB1, the IC50 lay in the range of 100 to 1000 nM. At CK1α, this compound gave a DC50 of less than 0.1 µM.
For `Cc1nc(C(=O)Nc2ccc3c(c2)CN(C2CCC(=O)NC2=O)C3=O)cn1-c1ccccc1` (stereo not shown) [Compound 155, N-(2-(2,6-dioxopiperidin-3-yl)-1-oxoisoindolin-5-yl)-2-methyl-1-phenyl-1H-imidazole-4-carboxamide], in that order: not above 100 nM and less than 0.1 µM.
The like results for `O=C1CCC(N2Cc3cc(NC(=O)c4cn(-c5ccccc5)c(C(F)(F)F)n4)ccc3C2=O)C(=O)N1` (stereo not shown) [Compound 156, N-(2-(2,6-dioxopiperidin-3-yl)-1-oxoisoindolin-5-yl)-1-phenyl-2-(trifluoromethyl)-1H-imidazole-4-carboxamide] were, in that order, 100 to 1000 nM and less than 0.1 µM.
In the case of `COCc1nc(C(=O)Nc2ccc3c(c2)CN(C2CCC(=O)NC2=O)C3=O)cn1-c1ccccc1` (stereo not shown) [Compound 157, N-(2-(2,6-dioxopiperidin-3-yl)-1-oxoisoindolin-5-yl)-2-(methoxymethyl)-1-phenyl-1H-imidazole-4-carboxamide], the IC50 at CRBN/DDB1 is not above 100 nM. Besides, the DC50 at CK1α was less than 0.1 µM.
For `Cc1c(C(=O)Nc2ccc3c(c2)CN(C2CCC(=O)NC2=O)C3=O)ncn1-c1ccccc1` (stereo not shown) [Compound 158, N-(2-(2,6-dioxopiperidin-3-yl)-1-oxoisoindolin-5-yl)-5-methyl-1-phenyl-1H-imidazole-4-carboxamide], in that order: 100 to 1000 nM and less than 0.1 µM.
The like results for `COCc1c(C(=O)Nc2ccc3c(c2)CN(C2CCC(=O)NC2=O)C3=O)ncn1-c1ccccc1` (stereo not shown) [Compound 159, N-(2-(2,6-dioxopiperidin-3-yl)-1-oxoisoindolin-5-yl)-5-(methoxymethyl)-1-phenyl-1H-imidazole-4-carboxamide] were, in that order, 100 to 1000 nM and 0.1 to 1 µM.

In general, GI50 refers to the concentration giving 50% growth inhibition. Lower therefore signals greater sensitivity of the cells.
